# In patent US10544130B2, “Metallo-beta-lactamase inhibitors” (priority 2015, dated 2020):
# What was measured:
# [1] = test system: Escherichia coli expressing NDM-1 (CLB30005, CLB30016); format: cell-based; details: with imipenem 1 μg/ml; 95% inhibition of bacterial growth
# How it was run: (§1)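 Clinical strains were grown overnight at 35 °C on blood agar, adjusted to set OD600 in saline and diluted 1:100 into 1.1× CAMHB. Inhibitor was tested with and without imipenem at 1 μg/ml. After 22–24 h at 35 °C, absorbance was read to give synergistic concentration.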
# [2] = test system: Klebsiella pneumoniae expressing VIM-1 (IHMA599644); format: cell-based; details: with imipenem 1 μg/ml; 95% inhibition of bacterial growth
# How it was run: as §1
# [3] = test system: Serratia marcescens expressing IMP-1 (CL5741); format: cell-based; details: with imipenem 1 μg/ml; 95% inhibition of bacterial growth
# How it was run: as §1
# [4] = test system: Pseudomonas aeruginosa PAO1 MB9798 (efflux+, IMP-1); details: ratio MITC95 PA 9798/MITC95 PA 9799; imipenem at 2 μg/mL
# How it was run: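 Isogenic PAO1 pair (efflux+ MB9798, efflux− MB9799, both IMP-1) tested by microbroth MIC with fixed imipenem and/or ceftazidime, usually at CLSI breakpoint, plus fixed class A/C inhibitor against AmpC. MBL inhibitor titrated; concentration restoring susceptibility recorded and fold difference between strains taken as efflux extent.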
SMILES,Escherichia coli (NDM-1) MITC95 [1] [µM],Klebsiella pneumoniae (VIM-1) MITC95 [2] [µM],Serratia marcescens (IMP-1) MITC95 [3] [µM],Efflux ratio [4]
"CN([C@H]1CCNC1)S(=O)(=O)c1ccc(-c2cccc3[nH]c(N)nc23)c(-c2nn[nH]n2)c1S(N)(=O)=O [Example 244, (S)-4-(2-amino-1H-benzo[d]imidazol-7-yl)-N1-methyl-N1-(pyrrolidin-3-yl)-3-(1H-tetrazol-5-yl)benzene-1,2-disulfonamide]",0.7813,1.563,1.563,2.00
"NCCN1CC[C@@H](NS(=O)(=O)c2ccc(-c3cccc4[nH]c(N)nc34)c(-c3nn[nH]n3)c2S(N)(=O)=O)C1 [Example 246, (R)-4-(2-amino-1H-benzo[d]imidazol-4-yl)-N1-(1-(2-aminoethyl)pyrrolidin-3-yl)-3-(2H-tetrazol-5-yl)benzene-1,2-disulfonamide]",0.7813,1.563,1.563,2.00
"NCc1ncc(-c2cccc(-c3ccc(S(=O)(=O)N[C@@H]4CCNC4)c(S(N)(=O)=O)c3-c3nn[nH]n3)c2)[nH]1 [Example 278, (R)-3′-(2-(aminomethyl)-1H-imidazol-5-yl)-N4-(pyrrolidin-3-yl)-2-(2H-tetrazol-5-yl)-[1,1′-biphenyl]-3,4-disulfonamide]",0.7813,0.7813,0.7813,1.00
"NCCn1nc2cccc(-c3ccc(S(=O)(=O)N[C@@H]4CCNC4)c(S(N)(=O)=O)c3-c3nn[nH]n3)c2n1 [Example 279, (R)-4-(2-(2-aminoethyl)-2H-benzo[d][1,2,3]triazol-4-yl)-N1-(pyrrolidin-3-yl)-3-(2H-tetrazol-5-yl)benzene-1,2-disulfonamide]",0.7813,0.7813,0.7813,1.00
"Cn1nc2cccc(-c3ccc(S(=O)(=O)N[C@@H]4CCNC4)c(S(N)(=O)=O)c3-c3nn[nH]n3)c2n1 [Example 281, (R)-4-(2-methyl-2H-benzo[d][1,2,3]triazol-4-yl)-N1-(pyrrolidin-3-yl)-3-(2H-tetrazol-5-yl)benzene-1,2-disulfonamide]",1.563,3.125,1.563,2.00
"Nc1cc(-c2ccc(S(=O)(=O)N[C@@H]3CCNC3)c(S(N)(=O)=O)c2-c2nn[nH]n2)ccn1 [Example 288, (R)-4-(2-aminopyridin-4-yl)-N1-(pyrrolidin-3-yl)-3-(2H-tetrazol-5-yl)benzene-1,2-disulfonamide]",0.7813,1.563,1.563,2.00
"Cc1ccc(-c2ccc(S(=O)(=O)NCCN)c(S(N)(=O)=O)c2-c2nn[nH]n2)c2nc(N)[nH]c12 [Example 329, 4-(2-Amino-7-methyl-1H-benzo[d]imidazol-4-yl)-N1-(2-aminoethyl)-3-(2H-tetrazol-5-yl)benzene-1,2-disulfonamide]",1.563,1.563,1.563,2.00
"NCCNS(=O)(=O)c1ccc(-c2cccc3[nH]c([C@H](N)CN)nc23)c(-c2nn[nH]n2)c1S(N)(=O)=O [Example 335, (R)—N1-(2-aminoethyl)-4-(2-(1,2-diaminoethyl)-1H-benzo[d]imidazole-4-yl)-3-(2H-tetrazol-5-yl)benzene-1,2-disulfonamide]",1.563,3.125,3.125,2.00
"NCCNS(=O)(=O)c1ccc(-c2cccc3[nH]c([C@@H](N)CN)nc23)c(-c2nn[nH]n2)c1S(N)(=O)=O [Example 336, (S)—N1-(2-aminoethyl)-4-(2-(1,2-diaminoethyl)-1H-benzo[d]imidazol-4-yl)-3-(2H-tetrazol-5-yl)benzene-1,2-disulfonamide]",1.563,3.125,3.125,2.00
"NCCNS(=O)(=O)c1ccc(-c2cccc3[nH]c(CCN)nc23)c(-c2nn[nH]n2)c1S(N)(=O)=O [Example 337, N1-(2-aminoethyl)-4-(2-(2-aminoethyl)-1H-benzo[d]imidazol-4-yl)-3-(2H-tetrazol-5-yl)benzene-1,2-disulfonamide]",0.7813,0.7813,0.7813,2.00
"NCCNS(=O)(=O)c1ccc(C2=CC(N)CCC2)c(-c2nn[nH]n2)c1S(N)(=O)=O (centres unmarked) [Example 338, 5′-Amino-N4-(2-aminoethyl)-2-(2H-tetrazol-5-yl)-2′,3′,4′,5′-tetrahydro-[1,1′-biphenyl]-3,4-disulfonamide]",1.563,1.563,1.563,4.00
NCCNS(=O)(=O)c1ccc(-c2cccc3[nH]c(CN)nc23)c(-c2nn[nH]n2)c1S(N)(=O)=O [Example 343],0.7813,0.7813,0.7813,1.00
"NCCNS(=O)(=O)c1ccc(-c2cccc(C(=O)NC[C@H](O)CN)c2)c(-c2nn[nH]n2)c1S(N)(=O)=O [Example 346, (R)—N-(3-amino-2-hydroxypropyl)-4′-(N-(2-aminoethyl)sulfamoyl)-3′-sulfamoyl-2′-(2H-tetrazol-5-yl)-[1,1′-biphenyl]-3-carboxamide]",1.563,1.563,1.563,2.00
"NCCNS(=O)(=O)c1ccc(-c2cccc(NC[C@@H](N)CO)c2)c(-c2nn[nH]n2)c1S(N)(=O)=O [Example 349, (R)-3′-((2-amino-3-hydroxypropyl)amino)-N4-(2-aminoethyl)-2-(2H-tetrazol-5-yl)-[1,1′-biphenyl]-3,4-disulfonamide]",1.563,1.563,1.563,2.00
"NCCNc1cc(-c2ccc(S(=O)(=O)NCCN)c(S(N)(=O)=O)c2-c2nn[nH]n2)ccn1 [Example 456, N1-(2-Aminoethyl)-4-(2-((2-aminoethyl)amino)pyridin-4-yl)-3-(2H-tetrazol-5-yl)benzene-1,2-disulfonamide]",0.7813,1.563,0.7813,–
NCc1nc(-c2cccc(-c3ccc(S(=O)(=O)N[C@H]4CNC[C@H]4N)c(S(N)(=O)=O)c3-c3nn[nH]n3)c2)c[nH]1 [Example 462],1.563,1.563,1.563,–
